Consider four compounds from patent US4596820A, “1,7-diphenyl-3-methylaza-7-cyano-8-methylnonane for use in the treatment of diseases” (priority 1983, dated 1986).

The test system of series [1] is hypoxic reduction in the level of creatine phosphate, adenosine triphosphate and glycogen in the heart muscle. The series can be described thus: animal or person. The series is classed as in vivo, rat (male Wistar). The settings on record: for ED 50% (pretreatment dose which increases the ATP level by 50% compared with the hypoxic control group): 360 min; for Relative activity: relative to (±) A = 1. How it is done:
Male Wistar rats weighing 250-300 g were anesthetized intraperitoneally with thiobutabarbital (100 mg/kg of body weight) and then subjected to standardized ventilation with an oxygen-deficient mixture (2% of O2 and 98% of N2) for 7 minutes. Using the freeze-stop technique, the apex of the heart was removed, mechanically comminuted and then digested with the addition of 0.6N perchloric acid. After centrifuging, creatine phosphate (according to Bergmeyer, H. U., Methoden der enzymatischen Analyse, Verlag Chemie, Weinheim, 2, (1974), 1825), adenosine triphosphate (according to Biochem. Biophys. Acta (Amst.) 1 (1947), 292) and glycogen (according to Biochem. J. 56 (1954), 1825) were determined in the supernatant liquid.
The test substances were administered to the conscious animals at various times before they were anesthetized and before the subsequent ventilation with an oxygen-deficient mixture. The percentage difference in the myocardial concentrations of adenosine triphosphate (ATP), creatine phosphate (CP) and glycogen in animals pretreated with the test substance compared with untreated hypoxic control animals was determined.
The ED 50% is the pretreatment dose of test substance which
increases the ATP level by 50% compared with the hypoxic

Series [2] deals with AV conduction. The series can be described thus: Effect on AV conduction in the dog. The series is classed as in vivo. How it is done: The effect on the AV conduction was tested on a species suitable for this purpose, ie. the dog.
The subject of series [3] is PQ interval and myocardial contractility. In words: PQ interval and myocardial contractility in anesthetized pigs. It is filed as in vivo, pig. To be noted: 0.2 mg/kg intravenously.
Series [4] concerns cerebral hypoxia. The series can be described thus: Tolerance of the mouse to hypoxia (survival of oxygen-deficient ventilation). The series is classed as in vivo, mouse (female NMRI Ivanovas). The settings on record: for Effect on number of animals surviving hypoxia after 3 minutes: 96.5% N2 and 3.5% O2, dose-dependent for A and its antipodes; for ED 50% (dose at which 50% of the animals survived oxygen-deficient ventilation for 3 minutes): 60 min. How it is done: To test for tolerance to hypoxia, female mice (NMRI Ivanovas, weight 24-26 g) were introduced individually into glass tubes through which a gas mixture consisting of 96.5% of N2 and 3.5% of O2 flowed via a rotameter, at a rate of 4 liters/min. The time from the beginning of passage of the gas mixture until death occurred was measured.
Tolerance of the mouse to hypoxia, test carried out 1 hour
after oral administration of the test substances.
ED 50% means that, at the stated dose, 50% of the animals
survived oxygen-deficient ventilation for 3 minutes.

For series [5], the system named is heart and the circulation. To be noted: similar doses; cited from earlier work.
Series [6] concerns blood pressure and heart rate. The series can be described thus: Blood pressure and heart rate of conscious spontaneously hypertensive rats. The series is classed as in vivo. The settings on record: 20 mg/kg oral.
The conditions of series [7]: in vivo.
Series [8] is described as follows: Overall findings (oral availability, duration of action, toleration). To be noted: in vivo.
Setting [9] is: 20 mg/kg oral, 6 hours after administration (Table 3, comparison with verapamil).
Setting [10] is: 40 mg/kg oral, 6 hours after administration.
[11] abbreviates: 80 mg/kg oral, 6 hours after administration.
Setting [12] is: rat, 6 hours after oral administration.
[13] abbreviates: mouse, 1 hour after oral administration.
The mark [14] stands for this setting: 5 mg/kg oral, 6 hours after administration, vs untreated hypoxic controls.
Setting [15] is: 10 mg/kg oral, 6 hours after administration, vs untreated hypoxic controls.
Where [16] appears, read: 20 mg/kg oral, 2 hours after administration.
[17] abbreviates: 20 mg/kg oral, 6 hours after administration (Table 2).
Where [18] appears, read: 20 mg/kg oral, 6 hours after administration, vs untreated hypoxic controls (Table 1).
[19] abbreviates: 20 mg/kg oral, 12 hours after administration.
[20] abbreviates: 20 mg/kg oral, 18 hours after administration.
Setting [21] is: 20 mg/kg oral, 24 hours after administration.

Take `COc1ccc(CCN(C)CCCC(C#N)(c2ccc(OC)c(OC)c2)C(C)C)cc1OC` (centres unmarked) [verapamil, reference compound]: in series [1] (setting [9]), the “Percentage difference in the amount of ATP” value was 0%, the “Percentage difference in the amount of CP” value is recorded as -9% and the “Percentage difference in the amount of Glycogen” value is on record as 9%. In series [1] (setting [10]), the “Percentage difference in the amount of ATP” value is 9%, the “Percentage difference in the amount of CP” value was determined as 9% and the “Percentage difference in the amount of Glycogen” value is -5%. Besides, in series [1] (setting [11]), the “Percentage difference in the amount of ATP” value is reported as 20%, the “Percentage difference in the amount of CP” value is 21% and the “Percentage difference in the amount of Glycogen” value came to 2%. In addition, the “Protective action against the hypoxia-induced reduction in myocardial CP, ATP and glycogen” value in series [1] (same dose as A or up to 4 times higher, 6 hours after oral administration) is recorded as “no significant protective action”. In series [2] (0.4 mg/kg intravenously), the AV block entry is recorded as “causes second degree AV blocks in all experimental animals” and the PQ interval entry is recorded as “greatly prolongs the PQ interval”. Further, in series [3], the “Myocardial contractility (maximum systolic rate of increase in pressure in the left ventricle)” value is given as “reduction in the myocardial contractility” and the PQ interval result is “pronounced increase in the PQ interval”. In addition, the “Effect on number of animals surviving hypoxia after 3 minutes” value (“Effect on number” for short) in series [4] is listed as “ineffective”. Moreover, the “Survival of pretreated animals” value in series [4] (after 3 minutes of hypoxia) was “dead after 3 minutes”. The “Known effects on the heart and the circulation” value in series [5] is “reduction in blood pressure and inhibition of AV conduction”.
As to `CC(C)C(C#N)(CCCN(C)CCc1ccccc1)c1ccccc1` (single isomer, unassigned; (-)) [(-) A, (-)-1,7-Diphenyl-3-methylaza-7-cyano-8-methylnonane], in series [1] (setting [12]), the “Effective dose compared with that of the antipode” value is on record as “substantially lower than that of the dextrorotatory antipode”, the “Efficacy relative to the racemate” value is “about twice as effective as the racemate”, the “ED 50% (pretreatment dose which increases the ATP level by 50% compared with the hypoxic control group)” value stood at 6.6 mg/kg and the Relative activity is 2.06. The “Effect on number” value in series [4] was “increase the number of experimental animals which survive after 3 minutes”. Further, the “ED 50% (dose at which 50% of the animals survived oxygen-deficient ventilation for 3 minutes)” value in series [4] (setting [13]) is listed as 48 mg/kg.
On to `CC(C)C(C#N)(CCCN(C)CCc1ccccc1)c1ccccc1` (single isomer, unassigned; (+)) [(+) A, (+)-1,7-Diphenyl-3-methylaza-7-cyano-8-methylnonane], for which, in series [1] (setting [12]), the “Efficacy relative to the racemate” value was “about one fourth of the efficacy of the racemate”, the “ED 50% (pretreatment dose which increases the ATP level by 50% compared with the hypoxic control group)” value is reported as 50.3 mg/kg and the Relative activity came to 0.27. The “ED 50% (dose at which 50% of the animals survived oxygen-deficient ventilation for 3 minutes)” value in series [4] (setting [13]) was 100 mg/kg.
Turning to `CC(C)C(C#N)(CCCN(C)CCc1ccccc1)c1ccccc1` (racemic) [A, 1,7-diphenyl-3-methylaza-7-cyano-8-methylnonane], the “Inhibition of the hypoxic reduction in CP, ATP and glycogen in the heart muscle” value in series [1] (5 mg/kg oral (lowest dose tested)) was “substantially inhibits the hypoxic reduction in the level of creatine phosphate, adenosine triphosphate and glycogen in the heart muscle”. Further, the “Percentage difference in the amount of ATP” value in series [1] (setting [14]) turned out to be 24%; in series [1] (setting [15]), 37%; in series [1] (setting [16]), 31%; in series [1] (setting [17]), 63%; in series [1] (setting [9]) it was 63%; in series [1] (setting [18]), 63%. In addition, the “Percentage difference in the amount of ATP” value came out at 42% in series [1] (setting [19]), 40% in series [1] (setting [20]) and 11% in series [1] (setting [21]). In addition, the “Percentage difference in the amount of CP” value in series [1] (setting [14]) stood at 29%; in series [1] (setting [15]) it was 47%; in series [1] (setting [16]), 41%; in series [1] (setting [17]) it was 80%; in series [1] (setting [9]) it was 80%; in series [1] (setting [18]), 80%. Besides, the “Percentage difference in the amount of CP” value is 42% in series [1] (setting [19]), 32% in series [1] (setting [20]) and 22% in series [1] (setting [21]). Moreover, the “Percentage difference in the amount of Glycogen” value in series [1] (setting [14]) was 10%; in series [1] (setting [15]), 27%; in series [1] (setting [16]) it was -1%; in series [1] (setting [17]), 50%; in series [1] (setting [9]), 50%; in series [1] (setting [18]) it was 50%. The figures for the “Percentage difference in the amount of Glycogen” value in series [1] (setting [19]), in series [1] (setting [20]) and in series [1] (setting [21]) were 19%, 16% and 26%, respectively. For the same compound, the “Cardioprotective effect at the dose” value in series [1] (20 mg/kg oral, rat) was “maximum cardioprotective effect”. For the same compound, in series [1] (20 mg/kg oral, CP and ATP), the “Onset of protective effect” value was “clearly detectable for the parameters CP and ATP as soon as 2 hours after administration”. Besides, in series [1] (20 mg/kg, CP and ATP), the “Duration of protective effect” value was “up to 24 hours”. The “Cardioprotective action compared with verapamil” value in series [1] (6 hours after oral administration) is given as “substantially superior to that of verapamil”. For the same compound, the ED50 was determined as 13.6 mg/kg in series [1] (Rattus norvegicus, po, 6 h, rat, 6 hours after oral administration, read-out: ED 50% (pretreatment dose which increases the ATP level by 50% compared with the hypoxic control group)) and 88 mg/kg in series [4] (Mus musculus, po, 1 h, mouse, 1 hour after oral administration, read-out: ED 50% (dose at which 50% of the animals survived oxygen-deficient ventilation for 3 minutes)). Besides, in series [1] (oral, rat), the “Dose dependence of protective effect” value is “An increase in dose results in a greater protective effect”. Moreover, in series [1] (setting [12]), the Relative activity came out at 1. In series [1] (rat, in vivo), the “Toleration of the dose” value is listed as “well tolerated”. The “Blood pressure, Change in %” value in series [6] (6 hours after administration) is -5%. Moreover, the “Heart rate, Change in %” value in series [6] (6 hours after administration) is given as -5%. The “Blood pressure, 6 hours after administration of the substance” value in series [6] (initial value 229) is recorded as 217. The “Heart rate, 6 hours after administration of the substance” value in series [6] (initial value 398) was found to be 378. Further, in series [2] (in vivo), the “Risk of provoking conduction disturbances compared with verapamil” value is listed as “substantially lower in the case of A than for verapamil”. The “Therapeutic index compared with verapamil” value in series [2] (in vivo) is “substantially greater therapeutic index than verapamil”. Moreover, the “Effect on AV conduction” value in series [2] (in vivo, iv, 0.4 mg/kg) is given as “no adverse effect at all on the AV conduction”. The “Effect on number” value in series [4] was “increase the number of experimental animals which survive after 3 minutes”. In addition, the “Protective action against cerebral hypoxia compared with verapamil” value in series [4] (mouse) was “superior protective action, compared with verapamil”. For the same compound, the “Reduction in the blood pressure” value in series [7] is “does not result in a reduction in the blood pressure”. The Toleration result in series [7] is recorded as “particularly well tolerated”. Besides, the Duration of action entry in series [8] is given as “long duration of action”. The Oral availability entry in series [8] (po) was “great oral availability”.
